Entries after “also recorded” stand apart in the source; their conditions may differ.
Assays:
[1] = Plasma concentration time course after oral administration; assay type: in vivo, rats
SK-N-MC cells = assay: TNF-α induced flux of reactive oxygen species (DCF fluorescence); assay type: cell-based; conditions: 100 μM test compound, TNF-α 3.0 ng/mL
Source text: Oxidative stress agents (OSA) are thought to be involved in cell death in IBD and are key initiator in the cascade of events leading to apoptosis. The purpose of this study is to evaluate the effect of Compound A on cytokine-induced OSA flux.
To visualize OSA, the dye dihydrodichlorofluorescein diacetate is used. This non-fluorescent dye is taken up by cells and deacetylated to its non-fluorescent congener dihydrodichlorofluorescein (H2 DCF), which is trapped within cells. Reactive oxygen species ("ROS") react with H2 DCF, converting it to the highly fluorescent DCF. DCF fluorescence can be measured spectrofluorometrically and can also be visualized in intact cells using fluorescent microscopy.
SK-N-MC cells (American Type Culture Collection, Rockville, Md.) were plated at 250,000 cells/well in 24-well Corning plates. Following plating, the cells were maintained in retinoic acid medium (5 μM) for five days and then treated with at test compound at 100 μM for 1 hour prior to TNF-α (3.0 ng/mL) treatment. […] Following incubation, cultures were read in a cytofluorometer at 485-530 nm wavelength to detect increased DCF formation. Relative fluorescence units (RFU) values for the respective treatment conditions were compared. In this assay, higher fluorescence readings indicate ROS production. Thus, reductions in fluorescence indicates reduction in ROS production.

TNBS-induced colitis = assay: TNBS model of IBD, Compound A given before TNBS (morphology, tissue weight); assay type: in vivo, Male Sprague-Dawley rats
Source text: The trinitrobenzene sulphonic acid ("TNBS") model is one of the standard IBD models used in IBD discovery research, and has been extensively evaluated in rodents. A single enema of TNBS induces a prolonged colonic inflammatory response (up to several weeks) that is transmural and is accompanied by oxidative damage as evidenced by an increase in myeloperoxidase ("MPO") activity. Furthermore, the inflammation is characterized by discrete areas of acute necrosis, inflammation and muscle thickening. Agents with anti-inflammatory effects in patients with IBD show efficacy in this model. Although the mechanism by which TNBS induces an inflammatory response is unknown, it is thought to have an immunological basis.
Male Sprague-Dawley rats (200-250 g) were housed in standard cages (2 per cage) and fed rat chow and tap water ad libitum. After an overnight fast, rats were brought into the laboratory and randomized into treatment groups. Colitis was induced by intrarectal administration of 0.5 ml of TNBS solution (50 mg/kg in 50% ethanol) using a 1 ml syringe attached to a 5 cm polyethylene catheter. Control animals received saline (0.9%) or a 1 % methyl cellulose suspension at identical time points.
Three days after TNBS administration, the rats were sacrificed and the colons excised and opened longitudinally.
The weights of each 5 cm colonic segment were also recorded to assess inflammatory induced edema.
For PO (oral) dosing, Compound A was administered by oral gavage 30 mg/kg as a 1% carboxy methyl cellulose ("CMC") suspension 1 hour prior to the administration of TNBS. Control rats were given CMC only. For IV (intravenous) dosing, Compound A was administered 30 mg/kg by tail vein injection in a 75% PEG/25 % water solution 1 hour prior to administration of TNBS. Control rats were given an injection of 75% PEG/25 % water only. Six rats were dosed for each route of administration.
An additional study was conducted varying the amount of Compound A administered to the rats. Doses of 10 mg/kg, 30mg/kg, and 70 mg/kg were given by oral administration.
A study was run to determine whether or not the effectiveness of Compound A was dependent upon when it was administered relative to the TNBS administration.
Groups of rats (N=11/group) were administered increasing doses of Compound A (0-90 mg/kg-po) 1 hour prior to TNBS enema. In addition to macroscopic assessment, the wet weight of the tissue was also measured as an additional secondary efficacy parameter.

DSS-induced colitis = assay: Mouse Dextran Sulfate (DSS) IBD model; assay type: in vivo, Swiss-Webster mice
Method: Another model used for screening candidate IBD-treating compounds is the Dextran Sulfate ("DSS") model. Similar to the TNBS model, DSS induced colitis is widely used as a screening tool for IBD therapeutics. When administered orally, DSS induces IBD-like symptoms in Swiss-Webster mice. This model is used to determine the effectiveness of compounds of this invention when such compounds are administered orally (p.o.)
Individually housed 30-40 g male Swiss-Webster mice (B & K Universal, Fremont, Calif.) received 3% DSS (Sigma Chemicals, St. Louis, Mo.) in their drinking water for 7 days. All animals received food and water ad libitum.
Two groups of mice were dosed orally with either Compound A in a dosing vehicle (1% methyl cellulose, dose range of 10 mg/kg to 30 mg/kg) or dosing vehicle alone (control).
Clinical signs of colitis were assessed by a disease activity index ("DAI") consisting of changes in stool characteristics, fecal occult bleeding and body weight loss. The DAI is very similar to the Crohn's Disease Activity Index used in clinical trials to evaluate new agents to prevent/treat IBD. The DAI data were analyzed using Proc Anova in SAS with a Bonferoni post-hoc analysis, and Model 108 in WinNonlin™ (Professional Version 1.5, Scientific Consulting, Apex, NC) for the ED50 and Emax values. The wet weight and myeloperoxidase ("MPO") data (collected only on Day 7) were analyzed by Proc TTest in SAS. MPO is a marker for neutrophil infiltration.
Stool Characteristic: 0=normal, 2=loose and 4=diarrhea
Fecal Occult Blood: 0=negative, 2=positive, 4=gross bleeding
Two strips of colonic tissue/mouse
MPO activity by spectrophotometric assay

[2] = 0-90 mg/kg po, 1 hour prior to TNBS

CC(=O)Nc1ccc(C(=O)NC(C)(C)C)cc1 [Compound A, N-tert-butyl-4-acetamidobenzamide]
lower plasma levels in animals dosed 4 hours before TNBS ([1]; > 6 hours after TNBS, vs dosing 1 hour before): approximately 30%
time after which plasma concentrations begin to decline ([1]; following oral administration): > 7 h
Tmax ([1]; rat, plasma, following oral administration, read-out: time of peak plasma concentration): 3 to 4 h
ROS induction by TNF-α (SK-N-MC cells): significantly reduced these effects
colonic morphological score (in words) (TNBS-induced colitis; [2]): dose-dependent reduction
wet weight of colonic segments (in words) (TNBS-induced colitis; [2]): dose-dependent reduction
protective effects, 10 mg/kg (TNBS-induced colitis; 10 mg/kg oral): minimal protective effects
severity of IBD symptoms / protection from TNBS damage, IV (TNBS-induced colitis; 30 mg/kg IV, 1 hour before TNBS): decreases the severity of IBD symptoms; also recorded: protected from the damage induced by TNBS; also recorded: greater protection seen following IV administration; also recorded: intravenous administration of Compound A also provides protection
protective effects, 30 mg/kg (TNBS-induced colitis; 30 mg/kg oral): increased protective effects
severity of IBD symptoms / protection from TNBS damage, PO (TNBS-induced colitis; 30 mg/kg po, 1 hour before TNBS): decrease the severity of IBD symptoms; also recorded: protected from the damage induced by TNBS
protection, administered 120 mins before TNBS (TNBS-induced colitis; 30 mg/kg po, 120 mins pretreatment): less protective compared to the 60 min pretreatment period
protective effects, 70 mg/kg (TNBS-induced colitis; 70 mg/kg oral): strongest protective effect
protection, administered 1 hour before TNBS (TNBS-induced colitis; 1 hour (60 min) pretreatment): best protection
tissue weight (in words) (TNBS-induced colitis; IV and PO, 30 mg/kg): suggest protection, but not as convincingly as the morphology and MPO activity results
activity in protecting colon tissue, summary (in words) (TNBS-induced colitis; IV or PO): good activity in protecting colon tissue from damage
protection, administered 240 mins before TNBS (TNBS-induced colitis; single dose, 240 mins pretreatment): little protection against morphological changes
MPO values (in words) (DSS-induced colitis; Day 7): the protection was not statistically significant
wet weight (in words) (DSS-induced colitis; Day 7): the protection was not statistically significant
protective effect against DSS-induced colitis (DSS-induced colitis; oral, 10 mg/kg to 30 mg/kg): showed protective effect against DSS-induced colitis
significance of protective effect by day (DSS-induced colitis; oral, 10 mg/kg to 30 mg/kg): statistically significant on days 3, 4, 5 and 7
estimated ED50 (DSS-induced colitis; oral, DSS model, WinNonlin): approximately 15 mg/kg
estimated Emax (DSS-induced colitis; oral, DSS model, WinNonlin): ~80 % protection

From patent publication US6194465A, “Benzamide therapeutics for the treatment of inflammatory bowel disease” (priority 1999, dated 2001)
